The values below come from article PMC5085131, “Cyclic AMP efflux inhibitors as potential therapeutic agents for leukemia” (Oncotarget, 2016).

Molecules are shown by their SMILES. Like-named read-outs stand apart in the source and are kept apart here.

The subject of assay [1] is U937 cells. Nature of the assay: F-cAMP efflux assay in U937 cells (screen and dose response). The format is cell-based, human. The conditions noted are these: screen at 10 μM, 51 hits retested in dose-response. Here is the method:
Cells were loaded with F-cAMP as described. Briefly, cells were resuspended in a hypertonic solution containing 10% polyethylene glycol 1000, 0.5 M sucrose, and 250 μM F-cAMP in cRPMI without FBS, incubated 10 min at room temperature, washed, and then resuspended in hypotonic solution (60% cRPMI, 40% sterile water) for 2 min at room temperature to complete F-cAMP loading. Cells were resuspended in cRPMI and equilibrated for 2 h under normal culture conditions.
Samples were evaluated using Accuri C6 or BD FACScan flow cytometers (Becton Dickinson (BD)).
Liquid handling was accomplished with a Biomek FX Multichannel system (Beckman-Coulter, Fullerton, CA, USA) and/or Biotek Multiflo system (Winooski, VT, USA). F-cAMP-loaded U937 cells (2000/well) were seeded into 384-well polypropylene plates (Greiner Bio-One 784201, Monroe, NC, USA). Cells were treated with compounds (10 μM final concentration) from the Prestwick Chemical Library (Illkirch, France) or […] Collection (MicroSource, Gaylordsville, CT, USA) delivered by pintool (V&P Scientific, San Diego, CA), at a final DMSO concentration of 1%. Plates were foil-sealed with AlumaSeal 384™ (Excel Scientific, Victorville, CA, USA), and incubated inverted overnight. Sample plates were analyzed by CyAn flow cytometers (Beckman-Coulter) configured with HyperCyt high-throughput auto-sampler systems (IntelliCyt, Albuquerque, NM, USA) using 488 nm excitation to assess FL-1 (530/40) MFI levels.
Data were analyzed with HyperView software (IntelliCyt) and time-gated to determine data from each well. Wells with ≥ 50 events were evaluated for FL-1 MFI values. Samples with MFI values ≥ 2 standard deviations above the plate mean negative control values were considered “hit” compounds.
To validate sample data and decrease the number of false-positive hits, compounds were assayed in a high-throughput dose response assay. Plates were set up as in the HTS, with the exception that the plate formats contained 10-well dose responses for each hit compound, at final concentrations ranging from 30 μM to 4 nM.
The dose response data were normalized for percent response based on sample FL-1 MFI values in comparison to untreated F-cAMP-loaded cells kept at 4°C overnight or at time = 0, and were fitted by GraphPad Prism 5 software (GraphPad Software, La Jolla, CA, USA) for sigmoidal dose response with constrained hill slope = 1.

A further assay has as its system B-ALL cell lines. Put plainly: CellTiter-Glo cell viability, all B-ALL cell lines together. The conditions noted are these: Homo sapiens; mean of converged EC50s of six B-ALL lines; read-out: Compound EC50, Mean B-ALL (cell viability). Type of assay: cell-based, human. Here is the method:
(§1) Cell viability was determined with the CellTiter-Glo® Luminescent Cell Viability Assay (Promega). Greiner 655083 had 100 μL cRPMI +/− 4×10^4 cells/well, and dose response curves of compounds ranged from 100 μM to 1.53 nM (1% DMSO). Wells with DMSO-only served as negative controls. Samples were incubated overnight, and the assay was completed according to the manufacturer's protocol. Plates were analyzed using a Victor^3V™ 1420 Multilabel Counter (Perkin Elmer).

For a further assay, the system named is MHH Call 3. Put plainly: CellTiter-Glo cell viability. Type of assay: cell-based. The note with it: Homo sapiens; overnight, n = 6, ± SEM; read-out: Compound EC50, MHH Call 3 (cell viability). Here is the method: as §1
A further assay has as its system RS4;11. Put plainly: CellTiter-Glo cell viability. Type of assay: cell-based. The note with it: Homo sapiens, overnight, n = 6, ± SEM, read-out: Compound EC50, RS4;11 (cell viability). Here is the method:
as §1

A further assay deals with Nalm 6. Nature of the assay: CellTiter-Glo cell viability. The note with it: Homo sapiens, overnight, n = 6, ± SEM, read-out: Compound EC50, Nalm 6 (cell viability). Type of assay: cell-based. Here is the method:
as §1

Another assay has as its system Reh. Put plainly: CellTiter-Glo cell viability. Type of assay: cell-based. The conditions noted are these: Homo sapiens, overnight, n = 6, ± SEM, read-out: Compound EC50, Reh (cell viability). Here is the method: as §1
For a further assay, the system named is 697. Put plainly: CellTiter-Glo cell viability. The note with it: Homo sapiens; overnight, n = 6, ± SEM; read-out: Compound EC50, 697 (cell viability). The format is cell-based. Here is the method:
as §1

The next assay has as its system Sup B15. Put plainly: CellTiter-Glo cell viability. Type of assay: cell-based. The conditions noted are these: Homo sapiens, overnight, n = 6, ± SEM, read-out: Compound EC50, Sup B15 (cell viability). Here is the method:
as §1

Assay [2] concerns U937 cells. Nature of the assay: CellTiter-Glo cell viability. The note with it: Homo sapiens, U-937; overnight, n = 8, ± SEM, fit top = 100, bottom = 0, hill slope = −1; read-out: Compound EC50, U937 (cell viability). Type of assay: cell-based. Here is the method:
as §1

Assay [3] deals with primary B-ALL patient samples. Nature of the assay: CellTiter-Glo cell viability of primary ALL patient samples ex vivo. The format is cell-based, human. The note with it: for EC50: Homo sapiens; for Cell viability vs. vehicle treated sample at lower concentrations: samples from patients no. 1 and no. 5. Here is the method: Bone marrow samples were acquired at diagnosis from pediatric B-ALL patients. Mononuclear cells were enriched by centrifugation in Ficoll-Paque (GE Healthcare, cat. 17-1440-02) and aliquoted for storage in liquid nitrogen until use. Samples were thawed in a 37°C water bath, resuspended in 20% FBS cRPMI, and centrifuged to remove freezing medium. Cells were resuspended in conditioned medium (DMEM, 10% FBS, 50 U/ml penicillin-streptomycin, 2 mM L-glutamine) from HS-5 stromal cell cultures.
as §1
For primary ALL patient samples, media consisted of 50% cRPMI, 50% conditioned DMEM from HS-5 stromal cell cultures and compounds. Cell densities ranged from 28,000-68,000 cells/well, and plates were foil-sealed prior to incubation.

The test system of the next assay is VLA-4. Nature of the assay: Kinetic analysis of VLA-4 deactivation (LDV-FITC dissociation) in U937 cells with non-desensitizing FPR1 mutant. The format is cell-based, human. The conditions noted are these: U937 cells pre-activated through FPR1 mutant, 40 μM, 37°C. Here is the method:
Kinetic analysis of the binding and dissociation of the LDV-FITC probe was described previously. Briefly, flow cytometric data were acquired at 37°C while the samples were stirred continuously with a stir bar (Bel-Art Products). First, U937 cells transfected with a non-desensitizing mutant of the Formyl Peptide Receptor FPR1 [43] were analyzed for 30-120 s to establish a baseline. The FPR1 mutant triggers VLA-4 activation, which persists for hundreds of seconds, allowing for integrin deactivation to be detected. Next, the LDV-FITC was added and acquisition was re-established. […] Finally, 40 μM of ICE, forskolin (positive control) or vehicle (negative control) were added. Acquisition was re-established, and data were acquired continuously for up to 1024 s.
Therefore, the transition from low to high affinity state led to increased binding of the probe. This was detected as an increase in the median fluorescence intensity (MFI). VLA-4 deactivation led to the dissociation of the probe and decreased MFI [21].

Where [4] appears, read: mean of converged EC50s of six patient samples, read-out: Compound EC50 (Sample means), cell viability.
Where [5] appears, read: primary B-ALL sample, duplicate, ± SEM, read-out: Compound EC50 (Patient no. 1), cell viability.
The mark [6] stands for this setting: primary B-ALL sample, duplicate, ± SEM, read-out: Compound EC50 (Patient no. 2), cell viability.
The mark [7] stands for this setting: primary B-ALL sample, duplicate, ± SEM, read-out: Compound EC50 (Patient no. 3), cell viability.
Where [8] appears, read: primary B-ALL sample, duplicate, ± SEM, read-out: Compound EC50 (Patient no. 4), cell viability.
Where [9] appears, read: primary B-ALL sample, duplicate, ± SEM, read-out: Compound EC50 (Patient no. 5), cell viability.
The mark [10] stands for this setting: primary B-ALL sample, duplicate, ± SEM, read-out: Compound EC50 (Patient no. 6), cell viability.

Regarding `Oc1c(I)cc(Cl)c2cccnc12` [Clioquinol], the “Outcome of screen for inhibitors of cAMP efflux after dose-response validation” value in the assay with U937 cells [1] was “potentially active”. Also, the EC50 worked out at 35.2 µM in the assay on B-ALL cell lines; 67.1 ± 22.9 µM with MHH Call 3; 64.4 ± 36.6 µM in the assay with RS4;11; 24.8 ± 12.1 µM with Nalm 6; 21.1 ± 4.61 µM with Reh; 18.6 ± 7.74 µM in the assay on 697. Moreover, the concentration for a half-maximal effect (EC50) is 15.4 ± 3.51 µM with Sup B15; 40.6 ± 10.8 µM in the assay with U937 cells [2]; 58.8 µM in assay [3] (setting [4]); 60.1 ± 53.5 µM in assay [3] (setting [5]); 158 ± 84.5 µM in assay [3] (setting [6]); 8.67 ± 4.84 µM in assay [3] (setting [7]). Besides, the EC50 in assay [3] (setting [8]) amounted to 48 ± 22.9 µM; in assay [3] (setting [9]), 13.8 ± 5.23 µM; in [3] (setting [10]) it was 63.9 ± 41.1 µM. In addition, the “Cell viability vs. vehicle treated sample at lower concentrations” value in [3] was “significant increase in cell viability”.

On to `C[C@H]1COC2=C1C(=O)C(=O)c1c2ccc2c1CCCC2(C)C` [Cryptotanshinone], for which the “VLA-4 deactivation (dissociation of LDV-FITC)” value (shortened to “VLA-4 deactivation”) in the assay on VLA-4 is “rapid and reversible VLA-4 deactivation”. Moreover, the “Outcome of screen for inhibitors of cAMP efflux after dose-response validation” value with U937 cells [1] is listed as “potentially active”. Moreover, the EC50 in the assay with B-ALL cell lines is 67.7 µM; in the assay with MHH Call 3, 126 ± 35.9 µM; in the assay with RS4;11 it was 8.36 ± 5.84 µM; with Nalm 6 it was 70.2 ± 29.9 µM; in the assay with Reh it was 105 ± 14.6 µM; with 697, 67.1 ± 31.8 µM. In addition, the EC50 came to 29.2 ± 7.58 µM with Sup B15; 11.8 ± 6.78 µM in the assay with U937 cells [2]; 19.1 µM in assay [3] (setting [4]); 12.9 ± 5.51 µM in [3] (setting [5]); 29.8 ± 8.97 µM in assay [3] (setting [6]); 14 ± 9.8 µM in assay [3] (setting [7]). Further, the EC50 in [3] (setting [8]) came to 34.4 ± 5.79 µM; in assay [3] (setting [9]), 6.88 ± 2.89 µM; in assay [3] (setting [10]), 16.6 ± 5.55 µM.

For the compound `C=C1C(=O)O[C@H]2[C@H]1CC/C(C)=C/CC[C@@]1(C)O[C@@H]21` [Parthenolide], the “VLA-4 deactivation” value in the assay with VLA-4 is “exceeded the effects of the positive control, forskolin”. Moreover, the “Outcome of screen for inhibitors of cAMP efflux after dose-response validation” value with U937 cells [1] is given as “potentially active”. In addition, the EC50 came out at 1.77 µM in the assay on B-ALL cell lines; 1.97 ± 0.59 µM in the assay with MHH Call 3; 3.07 ± 1 µM in the assay on RS4;11; 0.72 ± 0.23 µM with Nalm 6; 2.19 ± 1.34 µM with Reh; 1.13 ± 0.31 µM with 697. The EC50 with Sup B15 amounted to 1.54 ± 0.36 µM; with U937 cells [2] it was 2.86 ± 1.55 µM; in assay [3] (setting [4]), 3.15 µM; in assay [3] (setting [5]) it was 4.72 ± 3.71 µM; in assay [3] (setting [6]), 3.65 ± 1.73 µM; in assay [3] (setting [7]), 3.17 ± 1.44 µM. Besides, the EC50 in assay [3] (setting [8]) came out at 4.13 ± 1.92 µM; in assay [3] (setting [9]), 0.92 ± 0.58 µM; in assay [3] (setting [10]), 2.31 ± 0.78 µM. The “Cell viability vs. vehicle treated sample at lower concentrations” value in assay [3] is “significant increase in cell viability”.

`O=C1C=C2C(=CCOC2O)O1` (stereo not shown) [Patulin]: in the assay with VLA-4, the “VLA-4 deactivation” value was “exceeded the effects of the positive control, forskolin”. Besides, in the assay on U937 cells [1], the “Outcome of screen for inhibitors of cAMP efflux after dose-response validation” value was “potentially active”. The EC50 turned out to be 0.38 µM in the assay on B-ALL cell lines; 0.53 ± 0.17 µM with MHH Call 3; 1.01 ± 0.22 µM with RS4;11; 0.07 ± 0.01 µM in the assay with Nalm 6; 0.33 ± 0.13 µM in the assay on Reh; 0.13 ± 0.04 µM in the assay with 697. Further, the EC50 is 0.2 ± 0.12 µM in the assay on Sup B15; 3.1 ± 2.22 µM in the assay with U937 cells [2]; 7.36 µM in assay [3] (setting [4]); 1.79 ± 1.75 µM in [3] (setting [5]); 4.72 ± 2.1 µM in assay [3] (setting [6]); 0.4 ± 0.29 µM in assay [3] (setting [7]). Moreover, in assay [3] (setting [9]), the EC50 is 22.5 ± 11.8 µM.
